The source of these data is PMC8475189, “The CopA2-Type P1B-Type ATPase CcoI Serves as Central Hub for cbb3-Type Cytochrome Oxidase Biogenesis” (Frontiers in Microbiology, 2021).

For the experiment, the target named is T1, CcoI (Rhodobacter capsulatus, UniProt D5ARQ0).
T1 construct: full-length with C-terminal Myc-His tag (pBAD-ccoI-Myc/HisA), expressed in E. coli C43(DE3), purified in DDM, monomeric SEC peak; strain MT1131 is printed as wild type and as genomic template of the ccoI-senC fusion
T1 sequence (D5ARQ0 1-742): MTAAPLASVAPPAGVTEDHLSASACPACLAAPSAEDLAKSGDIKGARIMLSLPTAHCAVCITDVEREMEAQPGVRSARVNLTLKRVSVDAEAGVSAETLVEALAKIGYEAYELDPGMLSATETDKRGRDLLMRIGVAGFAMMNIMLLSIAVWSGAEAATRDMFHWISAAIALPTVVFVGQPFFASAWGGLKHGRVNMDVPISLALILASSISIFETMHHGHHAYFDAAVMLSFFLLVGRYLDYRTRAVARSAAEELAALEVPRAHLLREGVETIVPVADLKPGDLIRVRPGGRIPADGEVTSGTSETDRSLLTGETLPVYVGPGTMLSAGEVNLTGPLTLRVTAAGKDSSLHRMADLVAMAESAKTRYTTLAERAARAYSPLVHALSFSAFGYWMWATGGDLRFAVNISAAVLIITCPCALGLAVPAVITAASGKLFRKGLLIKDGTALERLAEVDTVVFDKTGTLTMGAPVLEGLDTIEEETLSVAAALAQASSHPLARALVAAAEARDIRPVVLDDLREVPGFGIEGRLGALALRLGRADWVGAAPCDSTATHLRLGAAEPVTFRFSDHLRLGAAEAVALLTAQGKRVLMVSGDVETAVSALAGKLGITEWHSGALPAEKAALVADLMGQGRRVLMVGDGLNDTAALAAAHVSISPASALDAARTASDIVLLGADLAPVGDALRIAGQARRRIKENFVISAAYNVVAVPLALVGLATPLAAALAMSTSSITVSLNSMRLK
Nature of the experiment: […] phosphate release (charcoal, scintillation). In kind it is biochemical. The settings on record: labelled compound; 10-100 µM ATP, 10 mM MgCl2, 50 mM Tris pH 7.5, 300 mM NaCl, 0.03% DDM, 35 °C; no added Cu.

In the case of `Nc1ncnc2c1ncn2[C@@H]1O[C@H](COP(=O)(O)OP(=O)(O)OP(=O)(O)O)[C@@H](O)[C@H]1O` [ATP], the “33P phosphate release (charcoal, scintillation)” value is given as “ATPase activity of detergent-solubilized, purified CcoI”.
